pIC50: −log10 of the molar value.
Legend:
[1] = molecular target: T1, SGK1 (Homo sapiens, UniProt O00141); assay: KinaseProfiler Assay, AGC kinase panel; assay type: biochemical; design: purchased Eurofins Discovery (KinaseProfiler Service); conditions: HBT 10 µmol; normalized by positive inhibitors
T1 sequence (O00141 1-431): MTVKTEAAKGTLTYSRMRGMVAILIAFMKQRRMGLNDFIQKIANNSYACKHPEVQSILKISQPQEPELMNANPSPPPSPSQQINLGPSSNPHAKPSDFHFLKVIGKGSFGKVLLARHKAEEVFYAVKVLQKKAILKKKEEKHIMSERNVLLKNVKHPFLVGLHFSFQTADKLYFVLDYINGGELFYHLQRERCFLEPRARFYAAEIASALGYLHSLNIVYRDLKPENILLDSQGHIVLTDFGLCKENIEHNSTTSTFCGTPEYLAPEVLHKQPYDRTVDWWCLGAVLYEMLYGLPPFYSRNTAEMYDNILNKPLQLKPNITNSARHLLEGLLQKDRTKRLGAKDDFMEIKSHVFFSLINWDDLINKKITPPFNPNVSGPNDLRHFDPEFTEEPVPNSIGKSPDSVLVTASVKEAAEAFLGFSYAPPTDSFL
Description: 20 structurally related flavonoids of HBT were collected, which differ in the number and position of —OH groups, and examined for their effects on SGK1 activity. Based on the docking prediction, the —OH group at the C‐4’ position of HBT was required for the interaction with the key SGK1 residue D177. Therefore, the 20 flavonoids were divided into two classes according to the presence or absence of an —OH group at C‐4’ (Figure 4B). At both tested concentrations, flavonoids with an —OH group at C‐4’ (class A) inhibited SGK1 more than those without an —OH group at C‐4’ (class B) (Figure 4C). The IC50 of each compound is listed in Figure 4D; and Figure S6 (Supporting Information). […] Conversely, the absence of an ‐OH group at C‐8 led to a greater than 10‐fold reduction in flavonoid SGK1 inhibitory activity, as shown by the performance of A1 or A4. […] The inhibitory activity of HBT (10 µmol) against 28 human AGC kinases was tested by KinaseProfiler Assay (Eurofins Discovery). The percentage of HBT's inhibitory activity against each kinase was normalized by the respective positive inhibitors of AGC kinases.
The initial crystal structures of SGK1 (PDB entry: 3HDN, 3HDM, and 2R5T) were obtained from the Protein Data Bank (PDB). The prepared inhibitors were then docked by Glide with the extra precision (XP) scoring mode to estimate the binding affinity for each protein–ligand complex. […]

[2] = molecular target: T1, SGK1; assay: Mass spectrometry-based SGK1 kinase inhibitory assay (LC/MS of phosphorylated […]); assay type: biochemical; conditions: MS-based kinase inhibitory assay
Description: To identify active compounds with SGK1 inhibitory activity from Ext.R, a novel mass‐spectrometry based kinase inhibitory assay was developed. A polypeptide sequence ([…], m/z: 618.6) derived from glycogen Synthase Kinase‐3(GSK3), a known substrate of SGK1, was optimized and synthesized. We subsequently used liquid chromatography coupled with mass spectrometry (LC/MS) to detect and quantify its phosphorylation level ([…](p)FAE, m/z:658.7) (Figure 3A).^[ [26] ^] Basal level SGK1 was supplemented to each well, and the peak area of phosphorylation was measured in the presence or absence of testing compounds. […] After investigating the major chemical constituents in Ext.R (Table S3, Supporting Information), a set of compounds in Ext.R were subsequently screened for their impacts on SGK1 activity. […] The direct interaction between HBT and SGK1 was further verified by temperature‐ and dose‐dependent cellular thermal shift assays (Figure 3E,F). We further performed a direct binding assay of HBT to SGK1 by KINOMEscan assay (Eurofins Discovery).
Synthesis of […] was prepared by Shanghai Sangong Biotech. In order to ensure the phosphorylation reaction of SGK1, SGK1 (0.25 µg mL^−1) was added to kinase buffer (25 mmol Tris [pH 7.5], 5 mmol β‐glycerolphosphate, 2 mmol DTT, 10 mmol MgCl2) with the substrate peptide […] (25 µmol) and ATP (200 µmol) and incubated for 1 h at 30 °C in the presence or absence of inhibitors. A concentration‐dependent assay for SGK1 at different concentrations (0.05, 0.1, 0.2, 0.25, and 0.3 µg mL^−1) was performed. Reactions were terminated by the addition of methyl alcohol with 0.1% trifluoroacetic acid (TFA), and supernatants were analyzed by the Agilent 1100 LC system (Agilent Technologies, USA) and a 1946D single quadrupole mass spectrometer. The acquisition parameters for LC/MS were set for positive ionization mode and selected ion monitoring (SIM) m/z values of 618.6 and 658.7 for the substrate peptide and product peptide respectively. Chromatographic separation was performed by a reversed‐phase ZORBAX SB‐C18 analytical column. The mobile phase included water containing 0.1% v/v TFA (A) and acetonitrile containing 0.1% v/v TFA (B). The flow rate was 0.6 mL min^−1. A gradient program was carried out according to the following profile: 0 min, 13% B; 15 min, 28% B; 16 min, 100% B. The constituents of Ext.R were screened by the assay to evaluate their inhibitory effects on SGK1 activity. A minimum of three replicates of each sample were analyzed and averaged together. Inhibition of SGK1 was calculated by the following equation (1) Inhibitionrate%=PC−PS/PC P C and P S represented the peak area of product peptide in the control group without test compounds and the tested sample group with various test compounds, respectively.

O=c1c(O)c(-c2ccc(O)cc2)oc2c(O)c(O)cc(O)c12 [HBT, herbacetin]
inhibitory activity on SGK1 [1]: 95%
pIC50 [2]: 6.12
